Consider three compounds from patent publication US20150175530A1, “ANTIBACTERIAL AGENTS” (priority 2012, published 2015).

Data set [1] relates to bacterial isolates (clinical isolates and ATCC quality control strains). The data set is described as follows: Minimum Inhibitory Concentrations (MICs) by broth microdilution (CLSI susceptibility testing). The following applies: broth microdilution. In kind it is cell-based. Put shortly:
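Broth microdilution per CLSI in cation-adjusted Mueller-Hinton broth, 2-fold serial drug dilutions, final inoculum 3×10^5–7×10^5 CFU/mL. Plates incubated 18-24 h at 35 °C in ambient air; MIC is lowest concentration preventing visible growth (OD600 nm<0.05), with levofloxacin and QC strains monitoring performance.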

The test system of data set [2] is 3 P. aeruginosa strains (APAE001, APAE002, APAE006). Briefly: Protein binding: fold change in MIC in the presence of 2% HSA and 0.05% AGP, Geomean of 3 strains. Type of data set: cell-based, Pseudomonas aeruginosa. The following applies: MIC in the presence of 2% HSA and 0.05% AGP divided by MIC in the absence; Geomean of 3 P. aeruginosa strains (APAE001, APAE002, APAE006). Put shortly: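 MIC against each strain was determined by the standard broth method in cation-adjusted Mueller-Hinton broth with and without 2% HSA plus 0.05% AGP. Fold change is the MIC ratio with/without protein per strain; the value reported is the geometric mean over APAE001, APAE002 and APAE006.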

Setting [3] is: APAE1096 is a clinical isolate, read-out: Minimum Inhibitory Concentrations (MICs) APAE1096.
The mark [4] stands for this setting: Pseudomonas aeruginosa, APAE002 is a wildtype lab strain of Pseudomonas aeruginosa known as PAM1020 or PA01, read-out: Minimum Inhibitory Concentrations (MICs) APAE002.
The mark [5] stands for this setting: Pseudomonas aeruginosa, ATCC27853, APAE001 is Pseudomonas aeruginosa ATCC27853, read-out: Minimum Inhibitory Concentrations (MICs) APAE001.

Converted amounts (≈) assume the structure as drawn. Where two headings read alike, the source gives them in different places. A value given as a limit tells only on which side of the number the result lay.

Consider `C[C@H](O)C#CC#Cc1ccc(C(=O)N[C@H](C(=O)NO)[C@@H](N)C(F)(F)F)cc1` [Compound 59, N-((2S,3R)-3-amino-4,4,4-trifluoro-1-(hydroxyamino)-1-oxobutan-2-yl)-4-((S)-5-hydroxyhexa-1,3-diyn-1-yl)benzamide], for which the MIC was 1 to 8 µg/mL (≈ 2.61 to 20.9 µM) in data set [1] (setting [3]), < 1 µg/mL in data set [1] (setting [4]) and 1 to 8 µg/mL (≈ 2.61 to 20.9 µM) in data set [1] (setting [5]). In data set [2], the “Protein Binding PB (Geomean of fold change in MIC)” value is 3.2.

As for `CC(C)(N)[C@H](NC(=O)c1ccc(C#CC#C[C@H](O)CO)cc1)C(=O)NO` [Compound 61, N—((S)-3-amino-1-(hydroxyamino)-3-methyl-1-oxobutan-2-yl)-4-((S)-5,6-dihydroxyhexa-1,3-diyn-1-yl)benzamide], the figures for the MIC in data set [1] (setting [3]), in data set [1] (setting [4]) and in data set [1] (setting [5]) were 1 to 8 µg/mL (≈ 2.78 to 22.3 µM), < 1 µg/mL and < 1 µg/mL, respectively. Moreover, the “Protein Binding PB (Geomean of fold change in MIC)” value in data set [2] turned out to be 1.6.

In the case of `CC(C)(N)[C@H](NC(=O)c1ccc(C#CC#C[C@@H](O)CO)cc1)C(=O)NO` [Compound 62, N—((S)-3-amino-1-(hydroxyamino)-3-methyl-1-oxobutan-2-yl)-4-((R)-5,6-dihydroxyhexa-1,3-diyn-1-yl)benzamide], the MIC was 1 to 8 µg/mL (≈ 2.78 to 22.3 µM) in data set [1] (setting [3]), < 1 µg/mL in data set [1] (setting [4]) and < 1 µg/mL in data set [1] (setting [5]). Moreover, the “Protein Binding PB (Geomean of fold change in MIC)” value in data set [2] is listed as 2.0.
